Data as given in patent publication US20090299056A1 (priority 2005, published 2009).

Columns and labels:
stability, expiry date = type: physicochemical; details: identified by State Food and Drug Administration
[1] = solution in water containing 0.1 g per 1 ml
dissolving rate = type: physicochemical
Typhoid bacillus = details: cited from earlier work
acinetobacter = details: cited from earlier work
klebsiella pneumoniae = details: cited from earlier work
shigella = details: cited from earlier work
proteus mirabilis = details: cited from earlier work
bacillus anthracis = details: cited from earlier work
Gram-positive coccus = details: except enterococcus, methicillin-resistant staphylococcus; cited from earlier work
Haemophilus influenzae = details: cited from earlier work
actistaphylococcus = details: cited from earlier work
[2] = system: Corynebacterium diphtheriae; details: cited from earlier work
neisseria = details: cited from earlier work
Streptococcus pneumoniae = details: cited from earlier work
[3] = system: streptococcus haemolytica; details: cited from earlier work
other enterobacteriaceae = details: cited from earlier work
partial E.coli = details: cited from earlier work
P. aeruginosa = details: cited from earlier work
[4] = system: PPNG (Penicillinase-Producing Neisseria gonorrheae); details: cited from earlier work
listeria = details: cited from earlier work

## Cc1nnc(SCC2=C(C(=O)[O-])N3C(=O)[C@@H](NC(=O)Cn4cnnn4)[C@H]3SC2)s1.O.O.O.O.O.[Na+] [cefazolin sodium pentahydrate]
stability, expiry date
  expiry date: 24 months
[1]
  pH value: 4.8-6.3
Dissolving rate
  dissolving rate: rapid dissolving rate

## Cc1nnc(SCC2=C(C(=O)O)N3C(=O)[C@@H](NC(=O)Cn4cnnn4)[C@H]3SC2)s1 [Cefazolin sodium]
Typhoid bacillus
  sensitivity: sensitive
acinetobacter
  sensitivity: resistant
Klebsiella pneumoniae
  antibacterial activity: good antibacterial activity
shigella
  sensitivity: sensitive
Proteus mirabilis
  antibacterial activity: good antibacterial activity
Bacillus anthracis
  sensitivity: very sensitive
Gram-positive coccus
  antibacterial activity: excellent antibacterial activity
Haemophilus influenzae
  sensitivity: intermediate sensitivity
actistaphylococcus
  antibacterial activity: low antibacterial activity
[2]
  sensitivity: very sensitive
neisseria
  sensitivity: sensitive
Streptococcus pneumoniae
  sensitivity: highly sensitive
[3]
  sensitivity: highly sensitive
Other enterobacteriaceae
  sensitivity: resistant
Partial E.coli
  antibacterial activity: good antibacterial activity
P. aeruginosa
  sensitivity: resistant
[4]
  sensitivity: resistant
listeria
  sensitivity: very sensitive
